Results from ChEMBL document CHEMBL1201862, “PubChem BioAssay data set” (2004).
Active and inactive are the calls of the source.

Key:
[1] = molecular target: Lysine-specific demethylase 4C (Homo sapiens, UniProt Q9H3R0); experiment: GASC-1 (JMJD2C) histone demethylase inhibitors, dose response, biochemical, DELFIA europium, cherry-picked samples (AID 488835); assay type: functional
[2] = molecular target: T1, Tyrosine-protein phosphatase non-receptor type 7 (Homo sapiens, UniProt P35236); assay type: functional
T1 sequence (P35236 whole entry): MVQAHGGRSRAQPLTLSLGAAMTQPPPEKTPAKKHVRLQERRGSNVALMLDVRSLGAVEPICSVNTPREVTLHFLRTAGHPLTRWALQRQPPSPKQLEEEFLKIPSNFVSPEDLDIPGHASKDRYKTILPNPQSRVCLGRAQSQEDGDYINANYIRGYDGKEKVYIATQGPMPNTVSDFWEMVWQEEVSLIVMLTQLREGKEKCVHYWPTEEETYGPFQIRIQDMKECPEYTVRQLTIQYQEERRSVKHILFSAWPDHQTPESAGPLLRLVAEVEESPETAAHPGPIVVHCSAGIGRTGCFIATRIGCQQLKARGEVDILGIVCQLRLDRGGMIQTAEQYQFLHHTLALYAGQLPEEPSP

[3] = molecular target: T2, Tyrosine-protein phosphatase non-receptor type 22 (Homo sapiens, UniProt Q9Y2R2); assay type: functional
T2 sequence (Q9Y2R2 whole entry): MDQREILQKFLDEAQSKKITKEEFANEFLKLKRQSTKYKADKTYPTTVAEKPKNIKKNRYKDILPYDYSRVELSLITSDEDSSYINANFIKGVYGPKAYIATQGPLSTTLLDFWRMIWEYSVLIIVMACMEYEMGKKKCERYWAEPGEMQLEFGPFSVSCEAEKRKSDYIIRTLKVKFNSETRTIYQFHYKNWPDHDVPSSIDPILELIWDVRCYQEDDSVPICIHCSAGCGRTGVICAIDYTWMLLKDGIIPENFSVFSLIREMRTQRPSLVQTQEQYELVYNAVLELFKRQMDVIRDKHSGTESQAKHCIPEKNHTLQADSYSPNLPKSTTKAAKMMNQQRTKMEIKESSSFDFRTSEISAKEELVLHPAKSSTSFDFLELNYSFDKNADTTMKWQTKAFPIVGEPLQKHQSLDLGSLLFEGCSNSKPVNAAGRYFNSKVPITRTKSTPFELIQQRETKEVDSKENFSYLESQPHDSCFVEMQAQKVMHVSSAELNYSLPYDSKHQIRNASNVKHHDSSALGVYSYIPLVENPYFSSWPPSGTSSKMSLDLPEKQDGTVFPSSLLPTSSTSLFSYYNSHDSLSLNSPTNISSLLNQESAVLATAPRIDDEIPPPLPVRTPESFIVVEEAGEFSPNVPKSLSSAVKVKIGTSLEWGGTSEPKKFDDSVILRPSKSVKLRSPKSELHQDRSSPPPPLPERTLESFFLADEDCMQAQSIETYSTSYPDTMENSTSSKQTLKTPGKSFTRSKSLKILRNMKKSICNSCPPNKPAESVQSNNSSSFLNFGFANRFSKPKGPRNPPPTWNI

[4] = molecular target: T2, Tyrosine-protein phosphatase non-receptor type 22; assay type: functional; remark: listed apart in the source
Vero [5] = experiment: cells; assay type: functional, cell-based; details: Chlorocebus sabaeus
Vero [6] = experiment: cells; assay type: functional; details: Chlorocebus sabaeus
[7] = molecular target: FAD-linked sulfhydryl oxidase ALR (Homo sapiens, UniProt P55789); experiment: inhibitors of human ALR sulfhydryl oxidase, dose response, biochemical, H2O2 detection, luminescence, cherry-pick (AID 493248)
[8] = molecular target: Dual specificity protein kinase CLK1 (Homo sapiens, UniProt P49759); experiment: CLK1 kinase inhibitors, off-target check, dose response, selectivity assay for Dyrk1A inhibitor project, biochemical, cherry-picked samples (AID 588811)
[9] = molecular target: Dual specificity tyrosine-phosphorylation-regulated kinase 1A (Rattus norvegicus, UniProt Q63470); assay type: biochemical, Homo sapiens

Lysine-specific demethylase 4C, sequence (Q9H3R0 whole entry): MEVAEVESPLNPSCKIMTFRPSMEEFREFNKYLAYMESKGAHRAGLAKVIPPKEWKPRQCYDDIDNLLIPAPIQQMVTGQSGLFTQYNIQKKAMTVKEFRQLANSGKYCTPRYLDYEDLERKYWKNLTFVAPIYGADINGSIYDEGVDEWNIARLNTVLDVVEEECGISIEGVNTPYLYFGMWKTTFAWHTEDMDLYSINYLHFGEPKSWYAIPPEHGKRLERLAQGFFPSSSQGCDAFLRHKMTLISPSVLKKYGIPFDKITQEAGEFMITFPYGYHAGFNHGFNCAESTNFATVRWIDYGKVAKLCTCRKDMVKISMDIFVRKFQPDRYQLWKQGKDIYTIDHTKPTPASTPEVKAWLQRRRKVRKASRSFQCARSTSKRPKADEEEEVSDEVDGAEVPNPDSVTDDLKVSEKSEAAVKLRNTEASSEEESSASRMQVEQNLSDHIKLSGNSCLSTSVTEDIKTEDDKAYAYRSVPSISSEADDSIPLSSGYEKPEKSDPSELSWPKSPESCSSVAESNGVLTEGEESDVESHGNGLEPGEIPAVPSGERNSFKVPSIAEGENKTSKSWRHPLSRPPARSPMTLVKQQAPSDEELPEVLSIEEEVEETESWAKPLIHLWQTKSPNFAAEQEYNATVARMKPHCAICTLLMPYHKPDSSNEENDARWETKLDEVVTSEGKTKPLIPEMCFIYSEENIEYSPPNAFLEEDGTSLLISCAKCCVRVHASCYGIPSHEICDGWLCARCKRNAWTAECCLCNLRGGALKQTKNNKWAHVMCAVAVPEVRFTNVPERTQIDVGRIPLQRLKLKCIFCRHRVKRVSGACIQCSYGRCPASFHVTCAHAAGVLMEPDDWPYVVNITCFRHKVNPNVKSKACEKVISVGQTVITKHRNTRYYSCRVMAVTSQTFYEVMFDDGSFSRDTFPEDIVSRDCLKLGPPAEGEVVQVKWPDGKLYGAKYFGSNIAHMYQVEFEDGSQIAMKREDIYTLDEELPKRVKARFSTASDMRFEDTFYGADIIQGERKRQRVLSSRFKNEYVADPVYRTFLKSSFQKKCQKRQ
FAD-linked sulfhydryl oxidase ALR, sequence (P55789 whole entry): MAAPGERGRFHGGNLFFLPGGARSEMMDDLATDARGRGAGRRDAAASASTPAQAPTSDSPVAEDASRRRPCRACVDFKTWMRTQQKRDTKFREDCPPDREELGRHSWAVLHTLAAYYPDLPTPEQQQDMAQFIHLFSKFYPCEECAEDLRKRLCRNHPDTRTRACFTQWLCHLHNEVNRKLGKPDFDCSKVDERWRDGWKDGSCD
Dual specificity protein kinase CLK1, sequence (P49759 whole entry): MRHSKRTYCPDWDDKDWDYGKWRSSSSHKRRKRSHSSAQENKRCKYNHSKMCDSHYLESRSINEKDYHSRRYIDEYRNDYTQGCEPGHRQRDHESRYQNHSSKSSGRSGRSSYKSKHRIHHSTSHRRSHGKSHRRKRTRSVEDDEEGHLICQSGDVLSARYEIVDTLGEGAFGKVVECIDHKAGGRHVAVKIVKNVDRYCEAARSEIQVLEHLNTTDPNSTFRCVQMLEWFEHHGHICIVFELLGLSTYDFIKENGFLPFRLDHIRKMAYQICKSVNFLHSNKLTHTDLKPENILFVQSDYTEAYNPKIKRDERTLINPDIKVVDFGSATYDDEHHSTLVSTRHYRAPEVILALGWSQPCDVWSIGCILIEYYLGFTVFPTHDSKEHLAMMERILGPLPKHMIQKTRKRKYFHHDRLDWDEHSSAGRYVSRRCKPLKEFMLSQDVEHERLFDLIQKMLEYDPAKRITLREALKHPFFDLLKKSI

CCOc1ccc(N2C(=O)CC(N(O)c3ccccc3)C2=O)cc1 (stereo not given) was tested. Which AC50 [1] did it give?
The AC50 was 12.7 µM (active).

How did the IC50 [2] turn out when Cc1ccc(C)n1-c1ccc(-c2cc[nH]n2)cc1 was run?
The IC50 was > 79.4 µM (inactive).

What about the IC50 [3] of the same molecule?
The IC50 was > 79.4 µM (inactive).

What about the IC50 [4] of the same molecule?
Its IC50 is > 79.4 µM (inactive).

Which results are given for COc1cccc(/C=C/C(=O)c2ccc3c(c2)OCO3)c1OC?
IC50 (Vero [5]): > 25 µM (active); CC50 (Vero [6]): > 25 µM (active)

How did the IC50 (Vero [5]) turn out when N#C/C(=C\c1c(Oc2ccccc2Cl)nc2ccccn2c1=O)C(=O)NC1CCS(=O)(=O)C1 (stereo not given) was run?
The IC50 was > 25 µM (active).

How did the AC50 [7] turn out when O=C(Nc1nc2c(s1)CCCC2)c1ccc(N2C(=O)CCC2=O)cc1 was run?
The AC50 was 1.11 µM (active).

And the AC50 [8]?
Its AC50 is 7.74 µM (active).

And the AC50 [9]?
Its AC50 is 5.26 µM (active).
